Assay results published in US4221805A, “Method of inducing platelet antiaggregation activity” (priority 1978, dated 1980).

Key:
platelet aggregation = experiment: In vivo platelet antiaggregation activity; set-up: species or system male rats, Wistar strain; settings: rats
Experimental: This experiment was carried out on male rats of the Wistar strain having a weight of 320±20 grams. Both the MRAP2 and the aspirin (used as a comparison drug) were dissolved in a physiological solution, and the solutions, adjusted to pH 7.4, were administered orally in doeses of 3 mg/kg to two groups of three rats each. […] The concentration of the solution was adjusted to contain 100 mg of MRAP2 per ml. Blood samples were drawn from each animal 72 and 120 hours after treatment, for checking the platelet aggregation. In calculating the activity, the previous method was used (the average of the three maximum amplitudes of the curves obtained with the untreated rats was given the control figure of 100%).

mice [1] = experiment: Acute toxicity in mice, oral administration (LD50); assay type: in vivo; settings: 20 animals per dose
Experimental: (§1) A total of 240 albino mice, 120 male and 120 female, of the Swiss strain and having an average weight of about 20 grams were used. The animals were divided into groups of 10 animals each, and kept caged for some days in an environment at a constant temperature (21°±1° C.) and humidity (60±5%). They were then fasted for 24 hours before the experiment, but were given free access to water.
(§2) The substance indicated by MRAP2 was administered, in a single administration, either orally or endoperitoneally. The LD50 was evaluated for each of the administration methods, using the method of Litchfield and Wilcoxon, J.Pharmacology, 96, 99, […], based on the mortality recorded for each group of mice over the seven days following administration.
(§3) Six groups of 20 animals, 10 male and 10 female, which had been given MRAP2 dissolved in tap water were used, the method utilised being gastric catheterisation.

[2] = Acute toxicity in mice, oral administration (LD50); assay type: in vivo; settings: mouse, in vivo
Experimental: as §1, §2, §3

mice [3] = experiment: Acute toxicity in mice, endoperitoneal administration (LD50); assay type: in vivo; settings: 20 animals per dose
Experimental: as §1, §2
(§4) Six groups of 20 animals, 10 male and 10 female, which had been given the active principle dissolved in a physiological solution were used.

[4] = as above; assay type: in vivo; settings: mouse, in vivo, ip
Experimental: as §1, §2, §4

rats = experiment: Acute toxicity in rats, oral administration (LD50); assay type: in vivo; settings: 20 animals per dose
Experimental: (§5) 200 albino rats, 100 male and 100 female, of the Wistar strain and weighing 130-150 grams were divided into groups of 10 animals each.
(§6) After being caged for some days at constant temperature (21°±1° C.) and humidity (60±5%), the animals were fasted for 24 hours before treatment.
(§7) The MRAP2 was administered in a single administration either orally or endoperitoneally, following the method heretofore described.
(§8) Teh LD50 was evaluated for each method of administration using the Litchfield and Wilcoxon method, based on the percentage mortality recorded in each group of rats during the seven days following treatment.
(§9) Five groups of 20 animals, 10 male and 10 female were used.

[5] = Acute toxicity in rats, oral administration (LD50); assay type: in vivo; settings: rat, in vivo
Experimental: as §5, §6, §7, §8, §9

stomach (gastric lesion) = experiment: Ulcerogenic activity in rats after prolonged administration; assay type: in vivo, male albino rats, Wistar strain
Experimental: The ulcerogenic activity of MRAP2 was tested both after a single administration of the drug, and after prolonged administration. In these tests, a total of 70 male albino rats of Wistar strain were used, having a weight of 200±20 grams. The MRAP2 was administered diluted in tap water. The points given for gastric ulcerative lesions were as follows: (0) no lesion; (1) hyperaemia or slight capillary obstruction; or slight loss of the epithelium; or some petechiae even with pale mucosa without hyperaemia; (2) diffuse capillary obstructions or numerous petechiae; or diffuse loss of the epithelium; of a few surface lesions; (3) strong submucosa haemorrhage; or many petechiae and small surface lesions; or much anaemic mucosa (yellowish colour); or up to three small ulcers; (4) general pattern as in the previous numbers, plus up to ten small ulcers; or long erosions; or up to three medium sized ulcers; (5) pattern as in number 4, with up to 15 small ulcers; or up to 6 large ulcers; (6) pattern as previously, with up to ten large ulcers, plus small ulcers; (7) pattern as previously, plus up to ten large ulcers and small ulcers; cases of perforated ulcers. 30 Rats were divided into three batches of ten animals each, and subjected daily over a period of six days to the following oral treatment: 1st group: controls 2nd group: MRAP2 (50 mg/kg) 3rd group: MRAP2 (125 mg/kg) Six hours after the last treatment, the animals were killed and the lesion index was evaluated following the techniques and methods previously described.

## Cl.Clc1ccccc1CN1CCCC1 [MRAP2, N-(2-chlorobenzyl)-pyrrolidine hydrochloride]
Platelet aggregation; oral 3 mg/kg, comparison with aspirin
  antiaggregation activity in vivo (in words): superior to that of aspirin
Platelet aggregation; single oral dose 3 mg/kg, day 3 (72 hours)
  % platelet antiaggregation activity on day 3: 38%
Platelet aggregation; single oral dose 3 mg/kg, day 3 (72 hours), controls = 100
  % platelet aggregation on day 3: 62%
Platelet aggregation; single oral dose 3 mg/kg, day 5 (120 hours)
  % platelet antiaggregation activity on day 5: 37%
Platelet aggregation; single oral dose 3 mg/kg, day 5 (120 hours), controls = 100
  % platelet aggregation on day 5: 63%
Mice [1]; 300 mg/kg
  No. of animals dead: 0
Mice [1]; 400 mg/kg
  No. of animals dead: 4
Mice [1]; 500 mg/kg
  No. of animals dead: 9
Mice [1]; 600 mg/kg
  No. of animals dead: 12
Mice [1]; 800 mg/kg
  No. of animals dead: 20
Mice [1]; 1000 mg/kg
  No. of animals dead: 20
[2]; 300 mg/kg
  mortality at 168 h: 0%
[2]; 400 mg/kg
  mortality at 168 h: 20%
[2]; 500 mg/kg
  mortality at 168 h: 45%
[2]; 600 mg/kg
  mortality at 168 h: 60%
[2]; 800 mg/kg
  mortality at 168 h: 100%
[2]; 1000 mg/kg
  mortality at 168 h: 100%
[2]; single administration, 7 days, 95% limits 515-561
  LD50 at 168 h: 536 mg/kg
Mice [3]; 75 mg/kg
  No. of animals dead: 0
Mice [3]; 100 mg/kg
  No. of animals dead: 2
Mice [3]; 150 mg/kg
  No. of animals dead: 18
Mice [3]; 200 mg/kg
  No. of animals dead: 20
Mice [3]; 300 mg/kg
  No. of animals dead: 20
Mice [3]; 400 mg/kg
  No. of animals dead: 20
[4]; 75 mg/kg
  mortality at 168 h: 0%
[4]; 100 mg/kg
  mortality at 168 h: 10%
[4]; 150 mg/kg
  mortality at 168 h: 90%
[4]; 200 mg/kg
  mortality at 168 h: 100%
[4]; 300 mg/kg
  mortality at 168 h: 100%
[4]; 400 mg/kg
  mortality at 168 h: 100%
[4]; single administration, 7 days, 95% limits 105-130
  LD50 at 168 h: 116 mg/kg
rats; 400 mg/kg
  No. of animals dead: 0
rats; 500 mg/kg
  No. of animals dead: 4
rats; 600 mg/kg
  No. of animals dead: 8
rats; 800 mg/kg
  No. of animals dead: 15
rats; 1000 mg/kg
  No. of animals dead: 20
[5]; 400 mg/kg
  mortality at 168 h: 0%
[5]; 500 mg/kg
  mortality at 168 h: 20%
[5]; 600 mg/kg
  mortality at 168 h: 40%
[5]; 800 mg/kg
  mortality at 168 h: 75%
[5]; 1000 mg/kg
  mortality at 168 h: 100%
[5]; single administration, 7 days, 95% limits 631-714
  LD50 at 168 h: 675 mg/kg
Stomach (gastric lesion); oral 50 mg/kg daily for six days, scale 0-7, controls 0.57 ± 0.1
  Average degree of lesion ± E.E.: 0.86 ± 0.2
Stomach (gastric lesion); oral 125 mg/kg daily for six days, scale 0-7, controls 0.57 ± 0.1, P <0.05 with regard to controls
  Average degree of lesion ± E.E.: 1.07 ± 0.2
Stomach (gastric lesion); oral daily for six days
  ulcerogenic activity (in words): significant only at a dose of 125 mg/kg, but even then only slight
